One may read the inhibition as how much of the control response was suppressed.

41 compounds from patent publication EP1888615B1, “17 -HSD1 AND STS INHIBITORS” (Abbott Products GmbH, priority 2005, dated 2006) can be followed below.

The target in the first assay is T1, recombinant human 17β-hydroxysteroid dehydrogenase type 1 (Homo sapiens, UniProt P14061).
T1 construct: made in house; host or cells: Sf9 insect cells (baculovirus, Bac to Bac Expression System)
T1 sequence (P14061 1-328): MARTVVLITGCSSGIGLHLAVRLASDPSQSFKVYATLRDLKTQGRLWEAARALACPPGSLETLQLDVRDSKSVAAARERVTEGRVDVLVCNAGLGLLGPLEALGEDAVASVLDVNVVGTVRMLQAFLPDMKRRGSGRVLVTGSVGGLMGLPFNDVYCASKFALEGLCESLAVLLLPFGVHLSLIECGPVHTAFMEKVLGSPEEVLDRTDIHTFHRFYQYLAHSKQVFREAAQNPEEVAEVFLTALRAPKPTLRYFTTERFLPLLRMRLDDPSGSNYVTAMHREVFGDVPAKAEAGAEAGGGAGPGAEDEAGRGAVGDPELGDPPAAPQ
Kind of assay: Inhibition of recombinant human 17β-hydroxysteroid dehydrogenase type 1 (conversion of 3H-estrone to estradiol, HPLC radiodetection). The class given is biochemical. The note with it: inhibitor 100 nM; 30 nM 3H-estrone, 1 mM NADPH, 30 min at RT. The procedure:
17β-HSD1 purification: Recombinant baculovirus was generated by the "Bac to Bac Expression System" (Invitrogen). Recombinant bacmid was transfected to Sf9 insect cells using "Cellfectin Reagent" (Invitrogen). 60h later cells were harvested; the microsomal fraction was isolated as described by Puranen et al. (1994). Aliquots were stored frozen until determination of enzymatic activity.
Assay - Inhibition of recombinant human 17β-hydroxysteroid dehydrogenase type 1: Recombinant protein (0.1µg/ml) was incubated in 20 mM KH2PO4 pH 7.4 with 30 nM 3H-estrone and 1 mM NADPH for 30 min at RT, in the presence of potential inhibitors at concentrations of 1 µM or 0.1 µM. Inhibitor stock solutions were prepared in DMSO. Final concentration of DMSO was adjusted to 1 % in all samples. The enzyme reaction was stopped by addition of 10 % trichloroacetic acid (final concentration). Samples were centrifuged in a microtiter plate at 4000 rpm for 10 min. Supernatants were applied to reverse phase HPLC on a Waters Symmetry C18 column, equipped with a Waters Sentry Guard column. Isocratic HPLC runs were performed at RT at a flow rate of 1 ml/min of acetonitrile:water 48:52 as running solvent. Radioactivity was monitored in the eluate by a Packard Flow Scintillation Analyzer. Total radioactivity for estrone and estradiol were determined in each sample and percent conversion of estrone to estradiol was calculated according to the following formula: % conversion = 100 × ({(cpm estradiol in sample with inhibitor)/[(cpm estrone in sample with inhibitor)+(cpm estradiol in sample with inhibitor)]})/({(cpm estradiol in sample without inhibitor)/[(cpm estrone in sample without inhibitor)+(cpm estradiol in sample without inhibitor)]}). [formula] [formula]
Table 19: Inhibition of 17β-HSD enzyme type I
Turning to `COc1cc2c(cc1O)CCC1C2CCC2(C)C(=O)CC(CCCC(=O)N3CCCCC3)C12` (stereo not drawn) [Example 78], the “Inhibition of rec 17β-HSD1” value was determined as 40.6%.

Staying with this assay, now noted: inhibitor 1 µm; 30 nM 3H-estrone, 1 mM NADPH, 30 min at RT; read-out: Inhibition of rec 17β-HSD1.
Regarding `C[C@]12CC[C@@H]3c4ccc(OCc5ccccc5)cc4CC[C@H]3[C@@H]1[C@H](C/C=C/C(=O)N1CCOCC1)c1cnoc12` [161'], the inhibition was determined as 74%.
`CCCc1cc2c(cc1O)CC[C@H]1[C@@H]3[C@H](CCCC(=O)NCc4ccccc4)CC(=O)[C@@]3(C)CC[C@H]21` [Example 2, N-Benzyl-4-(3-hydroxy-17-oxo-2-propyl-estra-1,3,5(10)-trien-15β-yl)-butyramide]: the inhibition was determined as 74.8%.
For `COCCc1cc2c(cc1O)CC[C@H]1[C@@H]3[C@H](CCCC(=O)NCc4ccccc4)CC(=O)[C@@]3(C)CC[C@H]21` [Example 3, N-Benzyl-4-(3-hydroxy-2-(2-methoxy-ethyl)-17-oxo-estra-1,3,5(10)-trien-15β-yl)-butyramide], the inhibition came to 71.2%.
The same measure, in the same setting: the same measure for `CCCc1cc2c(cc1O)CC[C@H]1[C@@H]3[C@H](CCCC(=O)N4CCOCC4)CC(=O)[C@@]3(C)CC[C@H]21` [Example 6, 3-Hydroxy-15β-(4-morpholin-4-yl-4-oxo-butyl)-2-propyl-estra-1,3,5(10)-trien-17-one]: 79.3%.
Regarding `CCCc1cc2c(cc1O)CC[C@H]1[C@@H]3[C@H](CCCC(=O)NCc4ccc5c(c4)OCO5)CC(=O)[C@@]3(C)CC[C@H]21` [Example 30], the inhibition worked out at 73.6%.
On the same count and under the same terms, to `CCCc1cc2c(cc1O)CC[C@H]1[C@@H]3[C@H](CCCC(=O)NCc4cccnc4)CC(=O)[C@@]3(C)CC[C@H]21` [Example 32] belongs 79%; to `CCCc1cc2c(cc1O)CC[C@H]1[C@@H]3[C@H](CCCC(=O)NCCc4c[nH]c5c(C)cccc45)CC(=O)[C@@]3(C)CC[C@H]21` [Example 34], 71.9%; to `CCCc1cc2c(cc1O)CC[C@H]1[C@@H]3[C@H](CCCC(=O)N4CCCCC4)CC(=O)[C@@]3(C)CC[C@H]21` [Example 36], 78.1%.
On the same count and under the same terms, the same measure for `CCCc1cc2c(cc1O)CC[C@H]1[C@@H]3[C@H](CCCC(=O)N(C)Cc4ccccc4)CC(=O)[C@@]3(C)CC[C@H]21` [Example 37]: 74.7%; for `CCCc1cc2c(cc1O)CC[C@H]1[C@@H]3[C@H](CCCC(=O)N(C)CCc4ccc(OC)c(OC)c4)CC(=O)[C@@]3(C)CC[C@H]21` [Example 38]: 76.7%; for `CCCc1cc2c(cc1O)CC[C@H]1[C@@H]3[C@H](CCCC(=O)Nc4ccc5cn[nH]c5c4)CC(=O)[C@@]3(C)CC[C@H]21` [Example 40]: 75.8%.
With `CCCc1cc2c(cc1O)CC[C@H]1[C@@H]3[C@H](CCCC(=O)NCCOC)CC(=O)[C@@]3(C)CC[C@H]21` [Example 41], the inhibition turned out to be 70.4%.
On to `CCCc1cc2c(cc1O)CC[C@H]1[C@@H]3[C@H](CCCC(=O)NCc4ccc(F)cc4F)CC(=O)[C@@]3(C)CC[C@H]21` [Example 42], for which the inhibition worked out at 71.7%.
Same read-out and setting: the same measure for `CCOc1cc2c(cc1O)CC[C@H]1[C@@H]3[C@@H](CCCC(=O)NC4CCCCC4)CC(=O)[C@@]3(C)CC[C@H]21` [Example 44]: 75%.
As for `CCOc1cc2c(cc1O)CC[C@H]1[C@@H]3[C@@H](CCCC(=O)NCc4ccc5c(c4)OCO5)CC(=O)[C@@]3(C)CC[C@H]21` [Example 45], the inhibition came to 75.7%.
Still for that read-out and setting: to `CCOc1cc2c(cc1O)CC[C@H]1[C@@H]3[C@@H](CCCC(=O)NCCc4c[nH]c5c(C)cccc45)CC(=O)[C@@]3(C)CC[C@H]21` [Example 52] belongs 72.2%; to `CCOc1cc2c(cc1O)CC[C@H]1[C@@H]3[C@@H](CCCC(=O)N4CCCCC4)CC(=O)[C@@]3(C)CC[C@H]21` [Example 55], 71.9%.
Still for that read-out and setting: the same measure for `CCOc1cc2c(cc1O)CC[C@H]1[C@@H]3[C@@H](CCCC(=O)Nc4ccc5cn[nH]c5c4)CC(=O)[C@@]3(C)CC[C@H]21` [Example 59]: 69.7%; for `COc1cc2c(cc1O)CC[C@H]1[C@@H]3[C@@H](CCCC(=O)NC4CCCCC4)CC(=O)[C@@]3(C)CC[C@H]21` [Example 67]: 73.2%; for `COc1cc2c(cc1O)CC[C@H]1[C@@H]3[C@@H](CCCC(=O)NCc4ccccc4)CC(=O)[C@@]3(C)CC[C@H]21` [Example 71]: 70.6%.
Same read-out and setting: to `COc1cc2c(cc1O)CCC1C2CCC2(C)C(=O)CC(CCCC(=O)N3CCCCC3)C12` (stereo not drawn) [Example 78] belongs 72%.
On to `COc1cc2c(cc1O)CC[C@H]1[C@@H]3[C@@H](CCCC(=O)Nc4ccc5cn[nH]c5c4)CC(=O)[C@@]3(C)CC[C@H]21` [Example 83], for which the inhibition is 71.6%.
As to `C[C@]12CC[C@@H]3c4ccc(O)cc4CC[C@H]3[C@@H]1[C@H](CCCC(=O)N1CCOCC1)CC2(F)F` [Example 90, 4-(17,17-Difluoro-3-hydroxy-estra-1,3,5(10)-trien-15β-yl)-1-morpholin-4-yl-butan-1-one], the inhibition was found to be 81.6%.
For the compound `C[C@]12CC[C@@H]3c4ccc(O)cc4CC[C@H]3[C@@H]1[C@@H](CCCC(=O)N1CCOCC1)CC2(F)F` [Example 91, 4-(17,17-Difluoro-3-hydroxy-estra-1,3,5(10)-trien-15a-yl)-1-morpholin-4-yl-butan-1-one], the inhibition worked out at 85%.
In the case of `Cc1cnc(NC(=O)CC[C@@H]2CC(F)(F)[C@@]3(C)CC[C@@H]4c5ccc(O)cc5CC[C@H]4[C@H]23)s1` [Example 93, 3-(17,17-Difluoro-3-hydroxy-estra-1,3,5(10)-trien-15β-yl)-N-(5-methyl-thiazol-2-yl)-propionamide], the inhibition is 86.7%.
`C[C@]12CC[C@@H]3c4ccc(O)cc4CC[C@H]3[C@@H]1[C@@H](CCCC(=O)NC1CCCCC1)CC2(F)F` [Example 102]: the inhibition was 70.6%.
Turning to `C[C@]12CC[C@@H]3c4ccc(O)cc4CC[C@H]3[C@@H]1[C@@H](CCCC(=O)NCc1ccccc1)CC2(F)F` [Example 106], the inhibition came out at 68%.
As to `C[C@]12CC[C@@H]3c4ccc(O)cc4CC[C@H]3[C@@H]1[C@@H](CCCC(=O)NCc1ccc(O)c(O)c1)CC2(F)F` [Example 109], the inhibition was 70.7%.
As to `Cc1cccc2c(CCNC(=O)CCC[C@H]3CC(F)(F)[C@@]4(C)CC[C@@H]5c6ccc(O)cc6CC[C@H]5[C@H]34)c[nH]c12` [Example 111], the inhibition came to 68.3%.
On the same count and under the same terms, to `C[C@]12CC[C@@H]3c4ccc(O)cc4CC[C@H]3[C@@H]1[C@@H](CCCC(=O)N1CCCCC1)CC2(F)F` [Example 113] belongs 76.9%; to `COc1ccc(CCN(C)C(=O)CCC[C@H]2CC(F)(F)[C@@]3(C)CC[C@@H]4c5ccc(O)cc5CC[C@H]4[C@H]23)cc1OC` [Example 116], 82.4%.
For `C[C@]12CC[C@@H]3c4ccc(O)cc4CC[C@H]3[C@@H]1[C@H](CCC(=O)NC1CC1)CC2(F)F` [Example 120], the inhibition is 85%.
Still for that read-out and setting: to `C[C@]12CC[C@@H]3c4ccc(O)cc4CC[C@H]3[C@@H]1[C@H](CCC(=O)NC1CCCCC1)CC2(F)F` [Example 121] belongs 92.5%; to `C[C@]12CC[C@@H]3c4ccc(O)cc4CC[C@H]3[C@@H]1[C@H](CCC(=O)NCc1ccc3c(c1)OCO3)CC2(F)F` [Example 122], 77.9%.
Take `C[C@]12CC[C@@H]3c4ccc(O)cc4CC[C@H]3[C@@H]1[C@H](CCC(=O)NCc1ccccc1)CC2(F)F` [Example 125]: the inhibition came to 76.9%.
Same read-out and setting: to `C[C@]12CC[C@@H]3c4ccc(O)cc4CC[C@H]3[C@@H]1[C@H](CCC(=O)NCc1ccc(O)c(O)c1)CC2(F)F` [Example 127] belongs 81.3%.
Same read-out and setting: to `COc1cc(CNC(=O)CC[C@@H]2CC(F)(F)[C@@]3(C)CC[C@@H]4c5ccc(O)cc5CC[C@H]4[C@H]23)cc(OC)c1` [Example 128] belongs 71.7%.
Consider `Cc1cccc2c(CCNC(=O)CC[C@@H]3CC(F)(F)[C@@]4(C)CC[C@@H]5c6ccc(O)cc6CC[C@H]5[C@H]34)c[nH]c12` [Example 129], for which the inhibition was 76.9%.
The same measure, in the same setting: the same measure for `C[C@]12CC[C@@H]3c4ccc(O)cc4CC[C@H]3[C@@H]1[C@H](CCC(=O)N1CCCCC1)CC2(F)F` [Example 131]: 71.9%.
The same measure, in the same setting: to `CCN(CC)C(=O)CC[C@@H]1CC(F)(F)[C@@]2(C)CC[C@@H]3c4ccc(O)cc4CC[C@H]3[C@H]12` [Example 133] belongs 90.6%; to `COc1ccc(CCN(C)C(=O)CC[C@@H]2CC(F)(F)[C@@]3(C)CC[C@@H]4c5ccc(O)cc5CC[C@H]4[C@H]23)cc1OC` [Example 134], 88.6%.
